Activity calls are given as the source filed them.
How the values were obtained:
[1] = inhibitors of HIV Env-driven cell fusion, dose response, cherry-pick (AID 652057); format: functional, cell-based
[2] = ZM109 Env clade C HIV-1 fusion inhibitors, dose response, HeLa effector, CEM target cells, luciferase, cherry-pick (AID 652058); format: functional, cell-based
[3] = inhibitors of clade B AD8 Env fusion, dose response, cell-based, cherry-pick (AID 652062); format: functional;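 also: luciferase signal from cell-cell fusion driven by HIV-1 clade B AD8 Env; potency is for inhibitors of fusion seen as a drop in luminescence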
[4] = off-target signal loss in HeLa-CEM21 co-culture – HeLa F-luc CTL cells, cherry-picked, counter-screen for HIV-1 Env fusion inhibitor project, dose response (AID 652040); format: functional, cell-based;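 also: potency for signal decrease marking cytotoxic or nonspecific inhibition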
[5] = molecular target: T1, Polyadenylate-binding protein 1 (Homo sapiens, UniProt P11940); assay: PABP1 MLLE–PAM2 interaction inhibitors, dose response, miRNA deadenylation inhibitor project, biochemical, fluorescence polarization, Cy5-PAM2 peptide, secondary (AID 602260); format: functional; conditions: read-out: IC50_Mean
[6] = molecular target: T1, Polyadenylate-binding protein 1; assay: PABP1 MLLE–PAM2 binding inhibitor potency, dose response, biochemical, fluorescence polarization, FITC-PAM2 peptide (AID 602259); format: functional; conditions: read-out: IC50_Mean
[7] = inhibitors of firefly luciferase expression or activity, dose response, H4 neuroglioma cells, luminescence (AID 1990); format: functional, cell-based
[8] = Luminescence Cell-Based Dose Response HTS to Identify Inhibitors of 5'UTR Stem-Loop Driven Prion Protein mRNA Translation in H4 Neuroglioblastoma Cells. [Related pubchem assays: 1827 (Project Summary), 1813 (Primary HTS)]; format: functional
[9] = inhibitors of SNCA 5'UTR-driven reporter translation, confirmation, H4 neuroglioma cells, luminescence (AID 1988); format: functional, cell-based
INS1 = assay: beta cell apoptosis inhibitors, cytokine rescue, dose response, luminescence, retest (AID 449756); format: functional, cell-based; conditions: Rattus norvegicus;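 also: cell death triggered by IL-1 beta plus TNF-alpha plus IFN-gamma mixture; protective hits raise ATP signal compared with cytokine alone wells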
[10] = molecular target: T2, Replicative DNA helicase DnaB (Mycobacterium tuberculosis, UniProt P9WMR3); assay: DnaB intein splicing inhibitors, dose response, biochemical, cell-free fluorescence (AID 449749); format: functional
T2 sequence (P9WMR3 whole entry): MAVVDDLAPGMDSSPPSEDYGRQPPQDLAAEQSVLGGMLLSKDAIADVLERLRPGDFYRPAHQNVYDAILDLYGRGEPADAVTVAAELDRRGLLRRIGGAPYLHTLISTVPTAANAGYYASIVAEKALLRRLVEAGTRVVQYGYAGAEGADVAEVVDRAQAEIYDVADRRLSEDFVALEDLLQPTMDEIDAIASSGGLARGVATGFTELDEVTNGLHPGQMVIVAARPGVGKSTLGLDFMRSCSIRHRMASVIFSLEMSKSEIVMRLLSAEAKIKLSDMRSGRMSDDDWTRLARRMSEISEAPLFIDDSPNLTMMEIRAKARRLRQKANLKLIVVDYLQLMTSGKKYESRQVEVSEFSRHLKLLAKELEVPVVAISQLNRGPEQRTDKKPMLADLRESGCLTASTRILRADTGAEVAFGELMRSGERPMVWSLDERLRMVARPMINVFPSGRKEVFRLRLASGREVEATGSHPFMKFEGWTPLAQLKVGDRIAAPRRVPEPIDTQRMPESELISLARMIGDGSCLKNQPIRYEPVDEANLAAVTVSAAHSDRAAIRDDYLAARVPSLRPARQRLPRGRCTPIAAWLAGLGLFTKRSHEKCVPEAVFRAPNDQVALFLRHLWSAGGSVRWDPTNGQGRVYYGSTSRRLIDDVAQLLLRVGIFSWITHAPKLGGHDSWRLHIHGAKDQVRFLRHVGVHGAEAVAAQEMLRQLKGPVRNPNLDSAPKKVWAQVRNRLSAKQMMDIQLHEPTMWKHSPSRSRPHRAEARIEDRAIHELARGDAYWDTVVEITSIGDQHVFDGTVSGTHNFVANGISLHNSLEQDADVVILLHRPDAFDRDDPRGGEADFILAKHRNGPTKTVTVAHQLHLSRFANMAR

Protein RecA = molecular target: T3, Protein RecA (Mycobacterium tuberculosis, UniProt P9WHJ3); assay: Fluorescence Cell-Free Homogeneous Dose Retest to Identify Inhibitors of RecA-Intein Splicing Activity. [Related pubchem assays (depositor defined):AID2097, AID2223, AID489010, AID492950]; format: functional
T3 sequence (P9WHJ3 whole entry): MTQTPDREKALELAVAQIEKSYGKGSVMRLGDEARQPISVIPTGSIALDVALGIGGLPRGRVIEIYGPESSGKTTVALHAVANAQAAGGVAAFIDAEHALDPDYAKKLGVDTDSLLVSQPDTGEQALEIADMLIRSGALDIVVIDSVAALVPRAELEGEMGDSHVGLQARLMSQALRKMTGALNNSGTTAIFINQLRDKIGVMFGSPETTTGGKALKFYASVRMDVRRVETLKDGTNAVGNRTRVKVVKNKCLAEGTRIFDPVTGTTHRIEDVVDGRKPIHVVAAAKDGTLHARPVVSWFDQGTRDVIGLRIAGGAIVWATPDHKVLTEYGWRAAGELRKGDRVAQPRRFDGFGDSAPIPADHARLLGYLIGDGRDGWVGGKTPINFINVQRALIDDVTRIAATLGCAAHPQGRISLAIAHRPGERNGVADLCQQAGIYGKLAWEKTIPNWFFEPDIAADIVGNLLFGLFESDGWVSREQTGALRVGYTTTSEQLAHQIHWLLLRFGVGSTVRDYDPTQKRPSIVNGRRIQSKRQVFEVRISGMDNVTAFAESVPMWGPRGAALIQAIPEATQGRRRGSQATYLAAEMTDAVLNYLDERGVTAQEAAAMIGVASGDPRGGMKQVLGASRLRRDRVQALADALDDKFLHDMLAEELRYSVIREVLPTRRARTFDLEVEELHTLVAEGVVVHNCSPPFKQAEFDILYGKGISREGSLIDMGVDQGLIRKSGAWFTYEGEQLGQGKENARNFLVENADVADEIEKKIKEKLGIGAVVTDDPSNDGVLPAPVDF

[11] = intracellular Trypanosoma cruzi inhibitors in host cells – cell-based, plate reader, cherry-pick samples, set 3, dose response (AID 651818); format: functional;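 also: compounds incubated with infected cells for about four days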
Large T antigen = Large T antigen (Simian virus 40, UniProt P03070); format: functional, Betapolyomavirus macacae;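 also: Confirmatory-stage PubChem screen for compounds that inhibit SV40 T antigen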
Chain of Large T antigen (P03070 whole entry): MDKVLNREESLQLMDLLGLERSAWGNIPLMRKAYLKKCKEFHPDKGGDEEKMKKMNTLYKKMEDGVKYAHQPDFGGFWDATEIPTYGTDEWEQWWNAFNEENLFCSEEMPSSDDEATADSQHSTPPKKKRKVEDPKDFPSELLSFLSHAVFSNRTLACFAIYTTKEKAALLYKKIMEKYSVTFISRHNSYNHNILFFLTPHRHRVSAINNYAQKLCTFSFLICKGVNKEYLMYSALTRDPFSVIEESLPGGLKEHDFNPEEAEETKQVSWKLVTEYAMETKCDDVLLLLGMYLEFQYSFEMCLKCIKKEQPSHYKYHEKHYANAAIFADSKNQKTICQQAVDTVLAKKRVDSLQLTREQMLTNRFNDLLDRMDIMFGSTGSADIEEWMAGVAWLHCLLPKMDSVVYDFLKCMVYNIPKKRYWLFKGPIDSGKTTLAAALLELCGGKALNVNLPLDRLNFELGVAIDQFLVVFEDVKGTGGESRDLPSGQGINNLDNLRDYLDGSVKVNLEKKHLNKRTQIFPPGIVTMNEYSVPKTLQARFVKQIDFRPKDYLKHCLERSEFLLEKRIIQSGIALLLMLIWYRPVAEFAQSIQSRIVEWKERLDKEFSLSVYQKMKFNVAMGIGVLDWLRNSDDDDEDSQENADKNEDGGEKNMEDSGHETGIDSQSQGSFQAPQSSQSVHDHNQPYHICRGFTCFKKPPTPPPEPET

T1 sequence (P11940 whole entry): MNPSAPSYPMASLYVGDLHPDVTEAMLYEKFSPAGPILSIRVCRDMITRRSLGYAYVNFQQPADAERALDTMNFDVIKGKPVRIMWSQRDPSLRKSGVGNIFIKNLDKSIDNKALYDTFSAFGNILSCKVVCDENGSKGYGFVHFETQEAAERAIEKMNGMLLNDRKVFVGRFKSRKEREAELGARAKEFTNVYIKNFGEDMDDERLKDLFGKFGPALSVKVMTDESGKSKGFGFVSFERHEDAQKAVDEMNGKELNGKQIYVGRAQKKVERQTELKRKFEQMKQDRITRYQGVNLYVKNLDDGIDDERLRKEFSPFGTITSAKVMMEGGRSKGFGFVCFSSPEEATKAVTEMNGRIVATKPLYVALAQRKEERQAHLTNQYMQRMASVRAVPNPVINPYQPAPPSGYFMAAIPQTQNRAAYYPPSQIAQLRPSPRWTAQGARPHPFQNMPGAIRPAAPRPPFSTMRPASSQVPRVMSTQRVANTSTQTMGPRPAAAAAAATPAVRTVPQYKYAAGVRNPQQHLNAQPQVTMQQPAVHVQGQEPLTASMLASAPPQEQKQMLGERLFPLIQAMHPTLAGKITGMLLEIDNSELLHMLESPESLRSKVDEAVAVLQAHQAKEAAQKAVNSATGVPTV

SMILES	IC50 [5]	IC50 [6]	AC50 [11]	other results
O=C(C[C@H]1CC[C@@H](NC(=O)Nc2ccccc2F)[C@@H](CO)O1)NCc1ccc(Cl)cc1				AC50 [1]: 5.2 µM (active); AC50 [2]: 5.31 µM (active); AC50 [3]: 18.8 µM (active)
CC(C)(C)NC(=O)C(c1ccccc1)N(Cc1cccs1)C(=O)c1csnn1 (centres undefined)				AC50 [1]: 6.9 µM (active); AC50 [2]: 5.72 µM (active); AC50 [4]: 38.5 µM (active); AC50 [3]: 8.36 µM (active)
CCn1c(N)c(C(=O)NC2CCCCC2)sc1=S	> 66 µM (inactive)	> 66 µM (inactive)		
Cc1ccc(C2CC2C(=O)NN=C(S)Nc2ccc(Cl)cc2)cc1 (centres undefined)	> 66 µM (inactive)	> 66 µM (inactive)		
NC(=S)N/N=C/c1c(O)ccc2ccccc12	> 66 µM (inactive)	> 66 µM (inactive)		EC50 [7]: 24.5 µM (active); EC50 [8]: 22.8 µM (active); EC50 [9]: 11.6 µM (active); AC50 (INS1): 1.09 µM (active)
Cc1ccc(SC(=O)c2c(C)noc2-c2cc(C)on2)cc1	> 66 µM (inactive)	> 66 µM (inactive)		AC50 [10]: 6.38 µM (active); EC50 (Protein RecA): 8.74 µM (active)
COc1ccc(NC(=O)Nc2cccc3c2O[C@H](CN(C)Cc2ccc(C(=O)Nc4ccccc4N)cc2)[C@H](C)CN([C@@H](C)CO)C3=O)cc1			5.98 µM (active)	
COc1ccc(NC(=O)Nc2ccc3c(c2)CC(=O)N([C@H](C)CO)C[C@@H](C)[C@@H](CN(C)Cc2ccc(-c4ccccc4)cc2)O3)cc1			3.14 µM (active)	
Cc1ccc(S(=O)(=O)Nc2cccc3c2O[C@@H](CN(C)Cc2ccc(C(=O)Nc4ccccc4N)cc2)[C@@H](C)CN([C@@H](C)CO)C3=O)cc1			2.17 µM (active)	
Oc1ccc(/C=N/NC(=S)Nc2cccnc2)cc1	> 66 µM (inactive)	> 66 µM (inactive)		IC50 (Large T antigen): 19.4 µM (active)
Cc1noc(C)c1NC(=O)Nc1cccc2c1O[C@H](CN(C)Cc1ccc(C(F)(F)F)cc1)[C@@H](C)CN([C@H](C)CO)C2=O			10.4 µM (active)	
COc1ccc(S(=O)(=O)Nc2ccc3c(c2)CC(=O)N([C@H](C)CO)C[C@@H](C)[C@@H](CN(C)S(=O)(=O)c2ccc(Cl)cc2)O3)cc1			1.97 µM (active)	

— ChEMBL document CHEMBL1201862, “PubChem BioAssay data set” (2004)
